According to patent US20230263822A1, “MODULATION OF FACTOR 11 EXPRESSION” (Ionis Pharmaceuticals, Inc., priority 2008, published 2023):

Columns and labels:
[1] = Bleeding assay, Surgicutt Jr. device (Example 45); type: in vivo, cynomolgus monkeys; set-up: unit not given here; settings: escalating dose regimen
Protocol: (§1) Groups, each consisting of two male and three female monkeys, were injected subcutaneously with ISIS 416838, ISIS 416850, ISIS 416858, ISIS 416864, or ISIS 417002 in escalating doses. Antisense oligonucleotide was administered to the monkeys at 5 mg/kg three times per a week for week 1; 5 mg/kg twice per week for weeks 2 and 3; 10 mg/kg three times per week for week 4; 10 mg/kg twice per week for weeks 5 and 6; 25 mg/kg three times per week for week 7; and 25 mg/kg twice per week for weeks 8, 9, 10, 11, and 12. One control group, consisting of two male and three female monkeys, was injected subcutaneously with PBS according to the same dosing regimen. An additional experimental group, consisting of two male and three female monkeys, was injected subcutaneously with ISIS 416850 in a chronic, lower dose regimen. Antisense oligonucleotide was administered to the monkeys at 5 mg/kg three times per week for week 1; 5 mg/kg twice per week for week 2 and 3; 10 mg/kg three times per week for week 4; and 10 mg/kg twice per week for weeks 5 to 12. Body weights were measured weekly. Blood samples were collected 14 days and 5 days before the start of treatment and subsequently once per week for Factor 11 protein activity analysis in plasma, fibrinogen measurement, PT and aPTT measurements, bleeding times, and measurement of various hematologic factors. On day 85, the monkeys were euthanized by exsanguination while under deep anesthesia, and organs harvested for further analysis.
On different days during the treatment period, bleeding assay was performed using a Surgicutt Jr. device (ITC, New Jersey). Monkeys were placed in monkey chair with their arm placed in a steady support. The arm was lightly shaved and a sphygmomanometer was placed on the upper arm. The cuff of the sphygmomanometer was inflated to 40 mm Hg and this pressure was maintained throughout the procedure. The area on the upper arm to be incised was cleansed with an antiseptic swab and the Surgicutt Jr device was used to make an incision over the lateral aspect, volar surface of the forearm, parallel to and 5 cm below the antecubital crease. At the exact moment the incision was made, a stopwatch was started. Every 30 seconds, blood from the incision was blotted out using a blotting paper without directly touching the incision, so that formation of the platelet plug was not disturbed. Blood was blotted out every 30 seconds until blood no longer stained the paper. The stopwatch was then stopped and the bleeding time determined. The sphygmomanometer was removed from the animal's arm, the incision site was antiseptically swabbed and a wound closure strip applied. The ISIS oligonucleotide, ISIS 416850, given with the chronic dose regimen is distinguished from the other oligonucleotides with an asterisk (*).

platelet aggregation = assay: Platelet aggregation assay, ADP and/or collagen (Example 45); type: in vivo, cynomolgus monkeys; settings: escalating dose regimen
Protocol: as §1
Platelet aggregation was initiated by adding 1 mmol/L ADP and/or 3 μg collagen (depending on the collection day, as outlined in Table 121) to plasma samples, and was allowed to proceed for 10 minutes. Aggregation was characterized by recording the change in the electrical resistance or impedance and the change in the initial slope of aggregation after platelet shape change. The aggregation test was performed twice per sample on each collection day and the average value was taken. The ISIS oligonucleotide, ISIS 416850, given with the chronic dose regimen is distinguished from the other oligonucleotides with an asterisk (*).

[2] = Tolerability in Sprague-Dawley rats: liver function (Example 35); settings: plasma, 50 mg/kg s.c. twice per week for 6 weeks
[3] = mouse, in vivo
Protocol: (§2) A control group of five mice was injected subcutaneously with PBS for 2 weeks. All experimental groups (i.e. ASO treated mice at 2, 4, 6 weeks) were compared to the control group (i.e. PBS, 2 weeks).
Blood obtained from all mice groups were sent to Antech Diagnostics for hematocrit (HCT), mean corpuscular volume (MCV), mean corpuscular hemoglobin (MCH), and mean corpuscular hemoglobin concentration (MCHC) measurements and analyses, as well as measurements of the various blood cells, such as WBC (neutrophils, lymphocytes, and monocytes), RBC, and platelets, and total hemoglobin content.

fibrinogen = assay: Fibrinogen assay (Example 45); type: in vivo, cynomolgus monkeys; settings: plasma, escalating dose regimen
Protocol: as §1
Nine parts of fresh monkey plasma was collected into one part of trisodium citrate. The samples were evaluated of fibrinogen content using an ACL 9000 coagulation instrument (Instrumentation Laboratory, Italy). The ISIS oligonucleotide, ISIS 416850, given with the chronic dose regimen is distinguished from the other oligonucleotides with an asterisk (*).

[4] = Tolerability in CD1 mice: kidney function, BUN, creatinine (Example 33); settings: plasma, 50 mg/kg s.c. twice a week
Protocol: as §2
To evaluate the effect of ISIS oligonucleotides on kidney function, plasma concentrations of blood urea nitrogen (BUN) and creatinine were measured using an automated clinical chemistry analyzer (Hitachi Olympus AU400e, Melville, N.Y.).

[5] = Kidney function, urine protein to creatinine ratio in cynomolgus monkeys (Example 45); type: in vivo
Protocol: as §1
To evaluate the impact of ISIS oligonucleotides on kidney function, urine samples were collected.

ISIS 416838: MOE gapmer, nucleobases 1018 to 1042 of SEQ ID NO: 1 (Table 6) (antisense GCAACCGGGATGATGAGTGC; MOE gapmer, wing and gap sizes not given here)
bleeding time ([1]; day 15): 167 | bleeding time ([1]; day 22): 165 | bleeding time ([1]; day 36): 166 | bleeding time ([1]; day 43): 120 | bleeding time ([1]; day 57): 238 | bleeding time ([1]; day 64): 131 | bleeding time ([1]; day 78): 145 | bleeding time ([1]; day 85): 201 | bleeding time ([1]; day −5): 150 | bleeding time ([1]; day −14): 200 | platelet aggregation (platelet aggregation; day 15 (with ADP)): 15 Ohms | platelet aggregation (platelet aggregation; day 36 (with ADP)): 8 Ohms | platelet aggregation (platelet aggregation; day 43 (with collagen)): 16 Ohms | platelet aggregation (platelet aggregation; day 57 (with ADP)): 7 Ohms | platelet aggregation (platelet aggregation; day 64 (with collagen)): 13 Ohms | platelet aggregation (platelet aggregation; day 78 (with ADP)): 11 Ohms | platelet aggregation (platelet aggregation; day 85 (with ADP)): 15 Ohms | platelet aggregation (platelet aggregation; day 85 (with collagen)): 24 Ohms | platelet aggregation (platelet aggregation; day −5 (with collagen)): 15 Ohms | ALT [2]: 5 IU/L | AST [2]: 2 IU/L | Albumin [2]: 2 | Bilirubin [2]: 4 mg/dL | RBC count [3]: 8 cells/pL | fibrinogen levels (fibrinogen; day 8): 209 mg/dL | fibrinogen levels (fibrinogen; day 15): 198 mg/dL | fibrinogen levels (fibrinogen; day 22): 183 mg/dL | fibrinogen levels (fibrinogen; day 29): 184 mg/dL | fibrinogen levels (fibrinogen; day 36): 182 mg/dL | fibrinogen levels (fibrinogen; day 43): 186 mg/dL | fibrinogen levels (fibrinogen; day 50): 216 mg/dL | fibrinogen levels (fibrinogen; day 57): 190 mg/dL | fibrinogen levels (fibrinogen; day 64): 190 mg/dL | fibrinogen levels (fibrinogen; day 71): 199 mg/dL | fibrinogen levels (fibrinogen; day 78): 189 mg/dL | fibrinogen levels (fibrinogen; day 85): 196 mg/dL | fibrinogen levels (fibrinogen; day −5): 205 mg/dL | fibrinogen levels (fibrinogen; day −14): 251 mg/dL | BUN ([4]; 2 weeks): 25 mg/dL | Creatinine ([4]; 2 weeks): 0.09 mg/dL | BUN ([4]; 4 weeks): 38 mg/dL | Creatinine ([4]; 4 weeks): 0.27 mg/dL | BUN ([4]; 6 weeks): 30 mg/dL | Creatinine ([4]; 6 weeks): 0.14 mg/dL | urine protein to creatinine ratio ([5]; Day 80): 0.13 | urine protein to creatinine ratio ([5]; Day 84): 0.13

ISIS 417002: MOE gapmer, nucleobases 1275 to 1318 of SEQ ID NO: 1 (Table 8) (antisense GGTGCACAGTTTCTGGCAGG; MOE gapmer, wing and gap sizes not given here)
bleeding time ([1]; day 15): 174 | bleeding time ([1]; day 22): 194 | bleeding time ([1]; day 36): 186 | bleeding time ([1]; day 43): 120 | bleeding time ([1]; day 57): 206 | bleeding time ([1]; day 64): 146 | bleeding time ([1]; day 78): 163 | bleeding time ([1]; day 85): 182 | bleeding time ([1]; day −5): 175 | bleeding time ([1]; day −14): 185 | platelet aggregation (platelet aggregation; day 15 (with ADP)): 16 Ohms | platelet aggregation (platelet aggregation; day 36 (with ADP)): 13.9 Ohms | platelet aggregation (platelet aggregation; day 43 (with collagen)): 19 Ohms | platelet aggregation (platelet aggregation; day 57 (with ADP)): 18 Ohms | platelet aggregation (platelet aggregation; day 64 (with collagen)): 18 Ohms | platelet aggregation (platelet aggregation; day 78 (with ADP)): 18 Ohms | platelet aggregation (platelet aggregation; day 85 (with ADP)): 22 Ohms | platelet aggregation (platelet aggregation; day 85 (with collagen)): 24 Ohms | platelet aggregation (platelet aggregation; day −5 (with collagen)): 21 Ohms | ALT [2]: 44 IU/L | AST [2]: 11 IU/L | Albumin [2]: 3 | Bilirubin [2]: 12 mg/dL | fibrinogen levels (fibrinogen; day 8): 221 mg/dL | fibrinogen levels (fibrinogen; day 15): 195 mg/dL | fibrinogen levels (fibrinogen; day 22): 199 mg/dL | fibrinogen levels (fibrinogen; day 29): 199 mg/dL | fibrinogen levels (fibrinogen; day 36): 191 mg/dL | fibrinogen levels (fibrinogen; day 43): 187 mg/dL | fibrinogen levels (fibrinogen; day 50): 236 mg/dL | fibrinogen levels (fibrinogen; day 57): 201 mg/dL | fibrinogen levels (fibrinogen; day 64): 236 mg/dL | fibrinogen levels (fibrinogen; day 71): 228 mg/dL | fibrinogen levels (fibrinogen; day 78): 221 mg/dL | fibrinogen levels (fibrinogen; day 85): 224 mg/dL | fibrinogen levels (fibrinogen; day −5): 222 mg/dL | fibrinogen levels (fibrinogen; day −14): 291 mg/dL | BUN ([4]; 2 weeks): 19 mg/dL | Creatinine ([4]; 2 weeks): 0.06 mg/dL | BUN ([4]; 4 weeks): 23 mg/dL | Creatinine ([4]; 4 weeks): 0.16 mg/dL | BUN ([4]; 6 weeks): 19 mg/dL | Creatinine ([4]; 6 weeks): 0.10 mg/dL | urine protein to creatinine ratio ([5]; Day 80): 0.18 | urine protein to creatinine ratio ([5]; Day 84): 0.24
